Source: patent US10167453B2, “Saccharide oxidase, and production method for same and use of same” (AMANO ENZYME INC., priority 2012, dated 2019)
Where two headings read alike, the source gives them in different places.

What was measured:
[1] = target: Acremonium chrysogenum NBRC30055-derived saccharide oxidase (Hapsidospora chrysogena, UniProt A0A086T4F9); assay: Investigation of substrate specificity; format: biochemical
Description: Using each saccharide indicated in Table 4 shown below as a substrate and in the presence of oxygen, the protein purified in Example 1 described above was reacted for 5 minutes at 37° C. at pH 7.0, and the measurement was conducted in accordance with the aforementioned saccharide oxidase activity measuring method. In addition, regarding the activity toward the glucose as 100%, the relative value of the activity toward each saccharide was calculated, thereby evaluating the substrate specificity.

[2] = tested on: OC[C@H]1OC(O)[C@H](O)[C@@H](O)[C@@H]1O; assay: purified protein, by the assay type; conditions: other: saccharide as substrate of the purified protein; pH 7.0; 37.0 °C
Description: Using the protein purified in the aforementioned Example together with glucose and maltose as substrates, the aforementioned saccharide oxidase activity method was used to measure the activity thereby obtaining Hanes-Woolf plots, from which each Michaelis constant (Km) was obtained.

[3] = Investigation of thermostability; format: physicochemical
Description: (§1) Since a quinoneimine color having absorption band at a wavelength of 550 nm was formed when the enzymatic reaction advanced, the saccharide oxidase activity was measured by measuring the increase in the absorbance at a wavelength of 550 nm per minute.
The protein solution purified in the aforementioned Example 1 was subjected to a heat treatment for 15 minutes at a temperature of 20° C., 25° C., 30° C., 35° C., 37° C., 40° C., 45° C., 50° C., 55° C., 60° C., 65° C., 70° C., 75° C., and 80° C., and thereafter the residual activity was measured by the aforementioned saccharide oxidase activity method. Regarding the activity with no heat treatment as 100%, each value of the residual activity was calculated. The results are indicated in the drawing-substituting graph of FIG. 5.

[4] = Thermal inactivation after desugaring of egg white; format: physicochemical
Description: 100 μL of the desugared egg white was subjected to a heat treatment at a temperature of 54, 56, and 58° C. for 1, 3, 5, and 8 minutes, respectively, and then cooled on ice, and the residual activity of each enzyme was measured.

[5] = Production of lactobionic acid (HPLC verification); format: biochemical; conditions: 3 U protein, 0.75 g lactose monohydrate, 23 hours, 40° C., 160 rpm
Description: 3 ml of a solution containing 0.75 g of lactose monohydrate, 0.225 g of potassium carbonate, and 3 U of the protein purified in the aforementioned Example 1 was added and shaken for 23 hours under the condition involving 40° C. and 160 rpm.
After the reaction, the sample was boiled for 10 minutes and then centrifuged at 15,000 rpm for 10 minutes. The resultant supernatant was filtered through a 0.45 μm filter and subjected to an HPLC analysis.

[6] = Investigation of pH stability; format: physicochemical; conditions: pH5.0 to pH10.5, 15 minutes at 37° C.; treatment at pH7.0 = 100%; maltose substrate
Description: as §1
The protein solution purified in the aforementioned Example 1 and the buffer solution of each pH used in the aforementioned Example 3 were mixed in equal volumes and treated for 15 minutes at 37° C., and thereafter the activity was measured by the aforementioned saccharide oxidase activity measuring method. As a substrate, maltose was used. In addition, regarding the activity when using monopotassium phosphate-sodium hydroxide buffer solution (pH7.0) for treatment as 100%, each relative value of the activity was calculated. The results are indicated in the drawing-substituting graph of FIG. 3.

[7] = relative activity 50% or higher versus glucose is judged satisfactory
[8] = saccharide as substrate, activity toward glucose = 100%, 37° C., pH 7.0, 5 minutes, in the presence of oxygen

Molecule: OC[C@H]1O[C@@H](O[C@H]2[C@H](O)[C@@H](O)[C@H](O)O[C@@H]2CO)[C@H](O)[C@@H](O)[C@@H]1O [D(+)-Cellobiose]
- effect of the saccharide oxidase on the substrate (in words) [1, 7]: satisfactory effect

Molecule: O=C(CO)[C@@H](O)[C@H](O)[C@H](O)CO [D(−)-Fructose]
- Relative activity (%) ([1]; pH 7): 0%
- effect of the saccharide oxidase on the substrate (in words) [1, 7]: No effect

Molecule: O=C[C@H](O)[C@@H](O)[C@@H](O)[C@H](O)CO [Galactose]
- effect of the saccharide oxidase on the substrate (in words) [1, 7]: satisfactory effect
- Relative activity (%) [1, 8]: 79%
- Relative activity (%) ([1]; saccharide as substrate, activity toward glucose = 100%, 37° C., pH 7.0, 5 minutes, in the presence of oxygen, listed as galactose): about 79%

Molecule: OC[C@H]1O[C@H](O[C@H]2[C@H](O)[C@@H](O)[C@@H](O[C@H]3[C@H](O)[C@@H](O)[C@@H](O[C@H]4[C@H](O)[C@@H](O)C(O)O[C@@H]4CO)O[C@@H]3CO)O[C@@H]2CO)[C@H](O)[C@@H](O)[C@@H]1O (some centres unmarked) [Maltotetraose]
- effect of the saccharide oxidase on the substrate (in words) [1, 7]: satisfactory effect
- Relative activity (%) [1, 8]: 60%
- Relative activity (%) ([1]; saccharide as substrate, activity toward glucose = 100%, 37° C., pH 7.0, 5 minutes, in the presence of oxygen, listed as maltotetraose): about 60%

Molecule: OC[C@H]1O[C@@](CO)(O[C@H]2O[C@H](CO)[C@@H](O)[C@H](O)[C@H]2O)[C@@H](O)[C@@H]1O [Sucrose]
- Relative activity (%) ([1]; pH 7): 0%
- effect of the saccharide oxidase on the substrate (in words) [1, 7]: No effect

Molecule: Acremonium chrysogenum NBRC30055-derived saccharide oxidase (Hapsidospora chrysogenum ATCC 11550)
- Km [2]: 8 mM

Molecule: Lactose monohydrate
- effect of the saccharide oxidase on the substrate (in words) [1]: satisfactory effect

Molecule: Maltoheptaose
- Relative activity (%) [1, 8]: 24%

Molecule: Maltohexaose
- Relative activity (%) [1, 8]: 28%

Molecule: Maltopentaose
- Relative activity (%) [1, 8]: 39%

Molecule: Maltose monohydrate
- effect of the saccharide oxidase on the substrate (in words) [1]: satisfactory effect

Molecule: Maltotriose
- effect of the saccharide oxidase on the substrate (in words) [1, 7]: satisfactory effect
- Relative activity (%) [1, 8]: 92%
- Relative activity (%) ([1]; saccharide as substrate, activity toward glucose = 100%, 37° C., pH 7.0, 5 minutes, in the presence of oxygen, listed as maltotriose): about 92%

B1: Saccharide oxidase: protein having saccharide oxidase activity purified from Acremonium chrysogenum NBRC30055, about 63 kDa, amino acid sequence SEQ. ID. NO:10 (protein, listed as Acremonium chrysogenum)
chain: MRSLAPLLSIAALARASPVDTSLLTRQETLNTCLEAAELSYVDVNSEDWEDAIVPHNLRVPVVPRAVVYATATEQIQAAVKCAVESEIRVSAKSGGHSYASMGLGGEDGSLVIQLDHWHDVTLRDDNTAVVSAGTRLGVVALELYAQGKRGISHGTCPSVGVGGHVVHGGYGFSSHTHGLALDAVVGANVVLADGSLVHASETENTDLFWALRGGGSSFGIVAEFEFETFDVSHNFSYFSIDSDISQETAEEATASLLAFQDALEEGLMDRKLNMRLSLGRPKVTLEAVYHGAKEDGRKALELFDDILGLNWSSNRTRANEADWLTMLESWTYGDPLNITYPYEGHDNAYTSSLVTRHIPEDAMASFMTYWKGVGQDRETPNWWLQMDVHGDANSRISEVDADSTAYSHRDKLWLFQFSSPLNPLRPDPEAAFALVNGYMDSIKDHLGDGEWGRYANYIDSELSREDAQTQYWSDHLDKLQAIKAELDPTQVFYNPQSIDPAAVE
- residual activity after heat treatment ([3]; 15 minutes at 45° C., pH7.0, no heat treatment = 100%): ≥ 80%
- temperature up to which stability was observed ([3]; heat treatment for 15 minutes): up to 45 °C
- residual enzyme activity in desugared egg white after heat treatment ([4]; 54 and 56° C., 1, 3, 5 and 8 minutes): no substantial reduction in the activity
- residual enzyme activity in desugared egg white after heat treatment ([4]; 58° C. for 5 minutes or longer, compared with the glucose oxidase): significant reduction in the activity
- production of lactobionic acid from lactose [5]: production of the lactobionic acid was verified
- residual activity after pH treatment [6]: ≥ 85%
